“Also recorded” adds a separate entry of the source. Residues, ends and D or L forms follow the SMILES beside them. *: point of attachment. Cbz = O=C(OCc1ccccc1)*
How the values were obtained:
[1] = target: T1, human glutathione-S-transferase α-1 (Homo sapiens, UniProt P08263); test: Degradation of pre-inhibited GST-α-1 in cell lysates (Western blot); type: biochemical; conditions: for Degradation of GST-α-1 in cell lysates: protein pre-treated with inhibitor, lysates from reticulocytes, HeLa, Cos and NIH 3T3 cells
T1 construct: HA (N); made in house; host or cells: Escherichia coli (pOXO4-α1 vector)
T1 sequence (P08263 1-222): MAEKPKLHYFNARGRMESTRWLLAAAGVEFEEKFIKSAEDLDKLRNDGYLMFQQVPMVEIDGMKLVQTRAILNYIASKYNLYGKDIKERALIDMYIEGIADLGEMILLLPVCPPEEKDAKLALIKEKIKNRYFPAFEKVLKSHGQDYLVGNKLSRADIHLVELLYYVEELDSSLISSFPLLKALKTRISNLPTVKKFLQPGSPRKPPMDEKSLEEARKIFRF
Method: The gel was transferred onto a polyvinyldifluoride membrane in Towbin (3 g Tris/14.4 g glycine) buffer, 100V for 1.2 hours then 40V for 3 hours for 18% gels, and 100 V for 1.2 hours for 12% gels. The membrane was blocked with 3% non-fat milk in Tris buffered saline (100 mM Tris base, 500 mM NaCl, pH 7.6) for one hour, then directly added to a solution of anti HA-HRP conjugated antibody in 0.5% non-fat milk in Tris buffered saline with 0.05% tween-20 for 2 hours. Membrane was washed twice with Tris buffered saline with 0.05% Tween 20 for 10 minutes, then washed once with Tris buffered saline for 15 minutes. The residual buffer was removed then exposed to ECL Plus™ (GE healthcare) for 5 minutes. Membrane was visualized by exposure to film (HyBlot CL, Denville Scientific). For in cell degradation assays, the membrane was cut in half (at approximately 40 kiloDaltons) and the lower molecular weight portion was probed and visualized with anti-GAPDH-HRP, protocol same as for anti-HA except Tris buffered saline contained 150 mM NaCl, not 500 mM. The higher molecular weight portion of the membrane was probed and visualized with anti-HA-HRP.
Human glutathione-S-transferase α-1 bearing an N-terminal HA tag was recombinantly expressed in Escherichia coli using the pOXO4-α1 vector. This was purified using glutathione affinity chromatography (GST-Bind™, Novagen). Escherichia coli dihydrofolate reductase bearing an N-terminal (His)6 tag and a C-terminal HA tag was recombinantly expressed in Escherichia coli using a pET28a vector. This was purified using Ni-NTA resin (Qiagen).
The cells were then serum starved for 2 days in the case of Cos and HeLa cells and 1 day in the case of NIH3T3 cells. The cells were washed with phosphate buffered saline and then trypsinized. Cells were collected, and an equal volume of complete medium was added. Cells were pelleted by centrifugation and the supernatant was aspirated. The cell pellet was washed three times with phosphate buffered saline. Cell pellets were stored at −80° C. until required. Cells were thawed on ice and maintained at 4° C. until required for the assay. […] The cells were lysed in a Dounce homogenizer (10 strokes), and then centrifuged at 14000 rpm for 30 minutes. The clarified lysate was normalized to an optimized concentration of 1 mg/mL (Bradford assay, Biorad®, as per manufacturer's instructions, using immunoglobulin as a standard) with lysis buffer. A 10×ATP regeneration buffer was made consisting of the following 1 mg/mL creatine kinase (Roche Diagnostics®), 600 mM creatine phosphate, 100 mM ATP, 200 mM Tris pH 8.0, 600 mM MgCl2. This was incubated at 37° C. for 30 minutes prior to use. Assays were conducted in […] total volume [including 1×ATP regeneration buffer, and 120 ng of HA-tagged protein (1 μL) preinhibited with 100 μM ethacrynic acid-derived inhibitor, or 1 μM trimethoprim-derived inhibitor] in 250 μL PCR tubes. Prior to assay 50 μL Chill Out wax (Biorad®) was overlaid on the top of the vial. 15 μL aliquots were extracted and diluted into 6 μL of 5× reducing SDS PAGE loading buffer and immediately frozen by being placed into dry ice. These were stored at −80° C. until required. Samples were thawed at 100° C. and continued to be boiled for 5 minutes. The samples were then centrifuged at 14,000 rpm on a microcentrifuge for 30 minutes and loaded onto an 18% polyacrylamide SDS PAGE gel, and Western blotted as per Example 2.

proteasome = test: Effect of proteasome inhibitors on Boc3Arg-induced degradation (lysates and whole HeLa cells); conditions: GST-α-1 in cell lysates; eDHFR fusion proteins in HeLa cells
eDHFR-HA-GFP = eDHFR-HA-GFP (Escherichia coli, UniProt P0ABQ4); conditions: transfected HeLa cells
Method: FIG. 6 depicts degradation of eDHFR-HA in cell lysates and degradation of eDHFR fusion proteins in HeLa cells. (A) Degradation of eDHFR in HeLa cells lysates; (B) quantification of panel (A); (C) Global protein stability (GPS) assay. Cells co-express red fluorescent protein (RFP) and DHFR-HA-GFP from a bicistronic construct. Red and green fluorescence was measured by flow cytometry.
Protein degradation in whole cells was also assessed. eDHFR-HA-GFP was co-expressed with Discosoma sp. red fluorescent protein (RFP) in a bicistronic construct under control of a CMV promoter, with DHFR-HA-GFP translation occurring at the internal ribosome binding site. Thus a single mRNA is responsible for the production of both RFP and DHFR-HA-GFP, so that similar ratios of both proteins should be produced in all transfected cells. Changes in the relative intensities of red and green fluorescence are measured by flow cytometry, providing a facile and quantitative measure of the degradation of DHFR-HA-GFP in living cells and real time.
Cells were grown to 90% confluence in Dulbecco's Modified Minimal Essential Medium supplemented with 10% fetal bovine serum, 1×L-glutamine with no antibiotic in a 6 well plate. At this point the cells were serum starved, and then transfected using […] plasmid (expression driven by the cytomegalovirus promoter; gene coding for enhanced green fluorescent protein fused to the C-terminus of E. coli dihydrofolate reductase): 2 μL Transfectin™ (Biorad) per well. 48 hours after transfection, media was once again aspirated, and fresh serum free media was added. Cycloheximide (final concentration 100 μg/mL) was then added to the cells and after 5 minutes, 30 μM inhibitor was added. At each time point (45 minutes), media was aspirated, cells were trypsinized, centrifuged and washed three times with phosphate buffered saline. Cell pellets were flash frozen in dry ice, and then stored indefinitely at −80° C. The cells were thawed on ice, and then resuspended in lysis buffer (150 mM sucrose, 200 mM sodium phosphate, 43 mM MgCl2, pH 7.8, 0.1% triton X-100). Cells were lysed by two freeze/thaw cycles (−80° C. for 5 minutes, then 4° C. for 10 minutes). Lysate concentrations were normalized by dilution with lysis buffer such that they gave the same A595 when diluted into Bradford assay dye (Biorad).

eDHFR-HA-GST-α1 = target: T2, eDHFR-HA-GST-α1 (UniProt P08263+P0ABQ4); test: Degradation of eDHFR-HA-GST-α1 ectopically expressed in HeLa cells; type: cell-based; conditions: for Degradation of eDHFR-HA-GST-α1: cycloheximide treated HeLa cells
T2 construct: expressed in transfected cells; host or cells: HeLa cells
T2 sequence (P0ABQ4+P08263 with tags, fused parts or gaps): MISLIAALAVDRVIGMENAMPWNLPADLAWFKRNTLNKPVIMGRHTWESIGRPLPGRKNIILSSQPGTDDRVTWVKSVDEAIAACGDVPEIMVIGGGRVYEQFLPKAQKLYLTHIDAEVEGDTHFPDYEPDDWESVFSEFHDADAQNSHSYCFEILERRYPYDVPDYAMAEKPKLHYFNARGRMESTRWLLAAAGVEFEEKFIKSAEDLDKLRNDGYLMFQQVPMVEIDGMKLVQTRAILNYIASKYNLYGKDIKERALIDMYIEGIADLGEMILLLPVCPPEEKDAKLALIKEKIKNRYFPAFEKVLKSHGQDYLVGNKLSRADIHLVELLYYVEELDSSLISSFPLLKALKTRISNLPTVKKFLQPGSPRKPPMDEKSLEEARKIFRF
Description: FIG. 5 depicts degradation of GST-α1-HA in HeLa cell lysates and eDHFR-HA-GST in HeLa cells.

endogenous GST-π = test: Degradation of endogenous GST-π in whole cells (immunoblot); type: cell-based; conditions: two hours
Method: FIG. 12 depicts degradation of endogenous GST-π. Cells were incubated with EA-Boc3Arg for 2 hours. Degradation was monitored by immuno-blotting with anti-GST antibodies. EA=right bar; EA-Boc3-Arg=left bar.
The ability of EA-Boc3Arg to degrade endogenous GST-π in the context of whole cells was also investigated. […] The Boc3Arg moiety can regulate endogenous protein levels in vivo.

`C=C(CC)C(=O)c1ccc(OCC(=O)NCCCCCCNC(=O)C(CCCNC(=N)NS(=O)(=O)c2ccc(C)cc2)NOC(=O)Cc2ccccc2)c(Cl)c1Cl` (centres unmarked) [Compound 2, N-(6-(2-(2,3-Dichloro-4-(2-methylenebutanoyl)phenoxy)acetamido)hexyl)-2-(benzylcarbonyloxyamino)-5-(3-tosylguanidino)pentanamide] was tested, and the “Degradation of GST-α-1 in cell lysates” value [1] was “functional degradation tag”.

For `CC(C)(C)OC(=O)N=C(NCCCC(NC(=O)OC(C)(C)C)C(=O)NCCCCCCSc1ccc([N+](=O)[O-])c2nonc12)NC(=O)OC(C)(C)C` (centres unmarked) [Fur-Boc3Arg, 5-(2,3-Di-tert-butoxycarbonylguanidino)-2-(tert-butoxycarbonylamino)-N-(6-(7-nitrobenzo[c][1,2,5]oxadiazol-4-ylthio)hexyl)pentan amide], the “Degradation of Fur-Boc3Arg-modified GST-α-1” value ([1]; NIH 3T3 cell lysates) was “readily degraded; also recorded: induces the degradation”.

For `CC(C)C[C@H](NC(=O)[C@H](Cc1ccccc1)NC(=O)c1cnccn1)B(O)O` [bortezomib], the “Effect on Boc3Arg-induced degradation” value (proteasome) was “block; also recorded: prevent degradation”, the “Effect on degradation of eDHFR-HA-GFP” value (eDHFR-HA-GFP) was “slower” and the “Effect on degradation of eDHFR-HA-GST-α1 by EA-Boc3Arg” value (eDHFR-HA-GST-α1; cycloheximide and non-cycloheximide treated HeLa cells) was “retards degradation”.

With `CC(=O)N[C@@H](CSC(=O)[C@]1([C@@H](O)C(C)C)NC(=O)[C@H](C)[C@@H]1O)C(=O)O` [lactacystin] the “Effect on Boc3Arg-induced degradation” value (proteasome) was “block”.

For `Cc1cc(C(=O)CN2CCCC2)c(C)n1-c1ccc(F)cc1` [PU1, reference compound], the “Effect on degradation of eDHFR-HA-GFP” value (eDHFR-HA-GFP) was “slower”.

For `CC(C)C[C@@H](C=O)NC(=O)[C@H](CC(C)C)NC(=O)[C@H](CC(C)C)NC(=O)OCc1ccccc1` [MG 132] (Cbz-Leu-Leu-Leu-aldehyde), the “Effect on Boc3Arg-induced degradation” value (proteasome) was “block; also recorded: prevent degradation”.

With `C=C(CC)C(=O)c1ccc(OCC(=O)NCCCCCCNC(=O)C(CCCNC(=NC(=O)OC(C)(C)C)NC(=O)OC(C)(C)C)NC(=O)OC(C)(C)C)c(Cl)c1Cl` (centres unmarked) [EA-Boc3Arg, N-(6-(2-(2,3-Dichloro-4-(2-methylenebutanoyl)phenoxy)acetamido)hexyl)-5-(2,3-di-t-butoxycarbonylguanidino)-2-(t-butoxycarbonylamino)pentanamide] the “depletion in the GST-π signal” value (endogenous GST-π) was 30%, the “Degradation of GST-α-1 in cell lysates” value [1] was “Degradation was observed” and the “Degradation of GST-α-1 in cell lysates” value ([1]; listed as 1) was “promotes the degradation”. For the same molecule, the “Degradation of eDHFR-HA-GST-α1” value (eDHFR-HA-GST-α1) was “can cause degradation”.

For `C=C(CC)C(=O)c1ccc(OCC(=O)O)c(Cl)c1Cl` [EA, ethacrynic acid, reference compound], the “Degradation of GST-α-1 in cell lysates” value [1] was “No degradation was observed” and the “Degradation of eDHFR-HA-GST-α1” value (eDHFR-HA-GST-α1) was “does not”.

— US9765019B2, “Small-molecule-targeted protein degradation” (Brandeis University, priority 2011, dated 2017)
